Earlier results on one molecule are cited in US9326991B2, “Nucleotide prodrug compounds and use” (LIGAND PHARMACEUTICALS INC., priority 2012, dated 2016).

Structures are written as SMILES.

Broadly, the half-life is how long it takes for the measured level to halve.

The conditions of this series: human subjects.

On to `NC(=O)c1ncn([C@@H]2O[C@H](CO)[C@@H](O)[C@H]2O)n1` [Ribavirin, 1-((2R,3R,4S,5R)-3,4-dihydroxy-5-(hydroxymethyl)oxolan-2-yl)-1H-1,2,4-triazole-3-carboxamide], for which the half-life is recorded as around 12 days.
